Data as given in patent US20250304620A1, “ANTIMICROBIAL PEPTIDE AND APPLICATION THEREOF” (priority 2023, published 2025).
Values after ≈ are worked out from the molar mass of the structure shown. Non-standard residues stand in square brackets, D forms with d. Residues, ends and D or L forms follow the SMILES beside them. Phe(4-Me) = Cc1ccc(C[C@H](N)C(=O)O)cc1

Legend:
[1] = tested on: Staphylococcus aureus (NRS 384); assay: microbe, parasite or virus in culture; type: cell-based
From the text: According to the Standards of Clinical and Laboratory Standards Institute (CLSI) of the USA for antimicrobial drug susceptibility test operation standards, a micronutrient serial twofold dilution method was used to determine minimum inhibitory concentrations (MICs) of all 60 peptides (S/N: LV-1˜LV-60) against Staphylococcus aureus (NRS 384). The experiment was repeated 5 times in parallel. […] An antibacterial drug Levofloxacin and an AMP Cbf-K16 (sequence of Cbf-K16: […]) were used as positive controls to evaluate the antibacterial effect of the antimicrobial peptides on Staphylococcus aureus (NRS 384).

[2] = tested on: Staphylococcus aureus (NRS 384); settings: 37° C., 3 h
Experimental: Trypsin (250 U/mg, pH=8.0) and AMPs (LV-1 to LV-30) were mixed in a ratio of 1:10 (w/w) and added to a reaction buffer (0.2 M sodium phosphate, 1 mM CaCl2), pH 7.5), and then incubated at 37° C. for 3 h.

[3] = tested on: Methicillin-resistant Staphylococcus aureus (MRSA); type: in vivo, ICR mice; settings: topical formulation 1 mg/mL, 0.1 mL twice a day for 4 days, mouse back skin infection
Experimental: (§1) Both female and male ICR mice were used in the test, half of the female and male mice were taken and randomly assigned into groups, with 10 mice in each group, and kept in separate cages. The mice were divided into a blank group, a model group, a positive control Methicillin group, and topical formulation groups of AMPs LV-1 to LV-30. Suspensions of Methicillin-sensitive Staphylococcus aureus (NRS 384) and Methicillin-resistant Staphylococcus aureus (MRSA) were prepared, and their concentrations were adjusted to a concentration of 5×10^6 CFU/mL for subsequent use. Hair on backs of the mice was shaved with a shaver, wound was created on back skin of each mouse using a biopsy punch, and the wound was then infected with Methicillin-sensitive Staphylococcus aureus and Methicillin-resistant Staphylococcus aureus (0.1 mL, 5×10^6 CFU/mL) to establish infection models. Except for the blank group and the model group, all other groups received corresponding topical formulations applied directly to the infected areas, with a dose of 0.1 mL, twice a day for 4 consecutive days. On the day following the final administration, skin from the infected sites of each group was aseptically collected, and an antibacterial rate was calculated.

[4] = tested on: Methicillin-sensitive Staphylococcus aureus (NRS 384); type: in vivo, ICR mice; settings: topical formulation 1 mg/mL, 0.1 mL twice a day for 4 days, mouse back skin infection
Experimental: as §1

[5] = tested on: rabbit red blood cells; type: cell-based; settings: red cells of rabbit, 1 h
Experimental: Fresh rabbit blood ([…]) was collected and centrifuged at 500 g for 5 min, a supernatant was discarded, and red blood cells were repeatedly washed with phosphate-buffered saline (PBS, 0.01 M, pH 7.4) until the supernatant was clear. The red blood cells (RBCs) were resuspended to 10 mL, and diluted 25-fold with PBS (0.01 M, pH 7.4) to prepare a red blood cell suspension with a concentration of about 2×10^8 RBC/mL. The AMPs were subjected to gradient dilution with normal saline (0.85%, w/v, NaCl) according to a multiple dilution method, final concentrations of the SMPs were 1.95, 3.9, 7.8, 15.6, 31.3, 62.5, 125, 250, 500, 1000, and 2000 μg/mL. 100 μl of polypeptide solution was taken and added to a 96-well plate with 5 replicates for each concentration; 100 μl of rabbit blood with a red blood cell count of about 2×10^8 RBC/mL was then added to each well, the plate was incubated at 37° C. for 1 h, centrifuged at 500 g for 5 min, 100 μl of supernatant was taken and transferred to a new 96-well plate, and an optical density (OD) at a wavelength of 541 nm was measured using a microplate reader. Triton X-100 (10 mg/mL as a starting concentration, two-fold gradient dilution) was used as a positive control group. A hemolysis rate was calculated using the following formula: Hemolysis rate (%)=[(OD541 of experimental group-OD541 of negative control group)/(OD541 of positive control group−OD541 of negative control group)]×100% Specific results of the hemolysis test are shown in Table 6. Minimum hemolytic concentration (MHC): a lowest drug concentration that can cause 10% hemolysis.

What does the source list for “KFFRKLKKSVKKRAKKFFKKPRVIGVSIPF [Cbf-K16, reference compound]”?
MIC against Staphylococcus aureus (NRS 384) ([1]; Staphylococcus aureus (NRS 384)): 32 µg/mL; Trypsin MIC ([2]; MIC vs Staphylococcus aureus (NRS 384) after trypsin treatment 1:10 (w/w)): >128 µg/mL; MIC values after trypsin treatment ([2]; trypsin:AMP 1:10 (w/w), Staphylococcus aureus (NRS 384)): lost its antimicrobial activity

`COc1cccc(OC)c1C(=O)N[C@@H]1C(=O)N2[C@@H]1SC(C)(C)[C@@H]2C(=O)O` [Methicillin, reference compound] was tested. Which “Inhibition rate against Methicillin-resistant Staphylococcus aureus (%)” value [3] did it give?
Its value is 1.05%.

What about the “Inhibition rate against Methicillin-sensitive Staphylococcus aureus (%)” value [4] of the same compound?
Its value is 84.83%.

For `CC(=O)N[C@@H](CCCNC(=N)N)C(=O)N[C@@H](CCCCN)C(=O)N[C@@H](CC(C)C)C(=O)N[C@@H](CC(C)C)C(=O)N[C@@H](Cc1ccc(C)cc1)C(=O)N[C@@H](CCCCN)C(=O)N[C@@H](CC(C)C)C(=O)N[C@@H](CCCCN)C(=O)N[C@@H](Cc1ccc(C)cc1)C(=O)N[C@@H](CCCCN)C(=O)N[C@@H](CCCNC(=N)N)C(N)=O` [LV-41] (Ac-RKLL[Phe(4-Me)]KLK[Phe(4-Me)]KR-NH2), which “MIC against Staphylococcus aureus (NRS 384)” value ([1]; NRS 384) is on record?
Its value is 4 µg/mL (≈ 2.59 µM).

And the “MHC (minimum hemolytic concentration, lowest concentration causing 10% hemolysis)” value [5]?
The value was over 1000 µg/mL.
